Earlier results as cited in patent US20090029375A1, “GENETIC MODELS FOR STRATIFICATION OF CANCER RISK” (Intergenetics, Inc., priority 2007, published 2009).

Tests used:
estrogen receptors = details: preclinical data, uterine and breast tissues
breast cancer = details: osteoporosis prevention/treatment study
[1] = test system: rat mammary carcinoma induced by dimethylbenzanthracene (DMBA)

Row | estrogen antagonism (estrogen receptors) | SMILES | effect on incidence of breast cancer (breast cancer) | induction of rat mammary carcinoma [1]
1 | estrogen antagonist | O=C(c1ccc(OCCN2CCCCC2)cc1)c1c(-c2ccc(O)cc2)sc2cc(O)ccc12 [raloxifene] | reduce the incidence of breast cancer | –
2 | – | CC/C(=C(\c1ccccc1)c1ccc(OCCN(C)C)cc1)c1ccccc1 [tamoxifen] | – | inhibits the induction
